Reference: patent US20160251403A1, “PEPTIDE COMBINATIONS AND USES THEREOF IN TREATING DUST MITE ALLERGY” (ALK-ABELLO A/S, priority 2013, published 2016)
No end group written: not given here.

Assays:
[1] = molecular target: DRB1_0101 (Homo sapiens, UniProt P01903+P01911, A100R/D57E/F55L/F60I/F76Y/I96L/L162R/M171V/P40L/Q125E/R42F/V115G/Y59C); test: Competitive MHC class II binding assay, DRB1_0101;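 note: competition against a radiolabeled probe peptide (0.1–1 nM) for purified HLA class II protein over 2–4 days, bound counts read after antibody capture, six competitor levels across 100,000-fold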
[2] = molecular target: DRB1_0701 (Homo sapiens, UniProt P01903+P01911, A100R/A102G/A103Q/D57E/D86V/E43K/F76Y/K127E/L162R/M171V/P40G/Q125H/Q99D/R33Q/R42Y/R54Q/S133A/S66F/T210M/V115G/Y107V/Y59L/Y89S); test: Competitive MHC class II binding assay, DRB1_0701;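 note: displacement of a radiolabeled reference peptide from purified HLA class II protein, with complex-bound radioactivity counted after 2–4 days of incubation and six concentrations spanning a 100,000-fold range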
[3] = molecular target: DRB1_0901 (Homo sapiens, UniProt P01903+P01911, A100R/A103E/D57H/D86V/F55Y/F60I/F76Y/I96F/K127E/L162R/M171V/P40D/Q125H/Q99R/R33Q/R42F/S133A/S66N/T210M/V115G/W38K/Y107V/Y59G/Y89S); test: Competitive MHC class II binding assay, DRB1_0901;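 note: displacement of a radiolabeled probe peptide from purified HLA class II protein, bound counts read after two to four days incubation, six concentrations spanning 100,000-fold, unlabeled probe as reference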
[4] = molecular target: DRB1_1302 (Homo sapiens, UniProt P01903+P01911, A100E/A169T/K41T/L162R/M171V/P40S/Q125H/Q178H/Q39Y/Q99D/R42S/S66N/T262R/V115G/W38E/Y61H); test: Competitive MHC class II binding assay, DRB1_1302;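 note: purified HLA class II protein incubated two to four days with a radiolabeled reference binder and test peptide at six concentrations over a 100,000-fold range, complex-bound radioactivity counted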
[5] = molecular target: DRB1_1501 (Homo sapiens, UniProt P01903+P01911); test: Competitive MHC class II binding assay, DRB1_1501
[6] = molecular target: DRB4_0101 (Homo sapiens, UniProt P01903+P13762, G164S); test: Competitive MHC class II binding assay, DRB4_0101
[7] = molecular target: DQA10501-DQB10301 (Homo sapiens, UniProt P01909+P01920); test: Competitive MHC class II binding assay, DQA10501-DQB10301
[8] = molecular target: DQA10102-DQB10602; test: Competitive MHC class II binding assay, DQA10102-DQB10602; settings: read-out: HLA-DQA10102-DQB10602; positive binding at cutoff 1000 nM
[9] = molecular target: DQA10101-DQB10501 (Homo sapiens, UniProt P01909+P01920, A157S/A45G/A70V/C70R/D89V/E106S/E118A/E183D/E77G/F83G/G63E/H151Q/H199R/H252R/H253Q/I129T/I235V/I88M/INS77G/K197Q/L107V/L117V/L119Y/L178F/L71W/L74F/L85Q/L91A/L98M/M46L/N214S/P87R/Q116E/Q256R/Q57E/Q76K/R102G/R240Q/R75S/R78G/S102Y/S185I/S41F/S97I/T103A/T109R/T121G/T122I/T172A/T86R/V148I/V68A/V73E/Y34C/Y58G/Y62H); test: Competitive MHC class II binding assay, DQA10101-DQB10501; settings: positive binding at cutoff 1000 nM; read-out: HLA-DQA10101-DQB10501
[10] = molecular target: DRB1_0401 (Homo sapiens, UniProt P01903+P01911, A100K/A169T/F76Y/I96L/K127E/L162R/M171V/N62H/P40V/Q125Y/R42H/S133A/S149N/S66Y/V115G/V209L/W38E); test: Competitive MHC class II binding assay, DRB1_0401
[11] = molecular target: DRB1_0405 (Homo sapiens, UniProt P01903+P01911, A100R/A169T/D86S/F76Y/I96L/K127E/L162R/M171V/N62H/P40V/Q125Y/R42H/S133A/S149N/S66Y/V115G/V209L/W38E); test: Competitive MHC class II binding assay, DRB1_0405
[12] = molecular target: DRB1_0802 (Homo sapiens, UniProt P01903+P01911, A100R/A103L/A169T/F76Y/H45Y/I96F/K41T/L162R/M171V/P40S/Q125H/Q178H/Q39Y/Q99D/R218S/R42G/S66Y/V115G/W38E); test: Competitive MHC class II binding assay, DRB1_0802
[13] = molecular target: DRB3_0202 (Homo sapiens, UniProt P01903+P79483, A212P/D57E/F66Y/L67A/R103Q/R218S/R40L/S89Y/T80R/V86D/Y55F/Y59H); test: Competitive MHC class II binding assay, DRB3_0202
[14] = molecular target: T1, DPA10103-DPB10201 (Homo sapiens, UniProt P04440+P20036, A65V/A84D/A85E/K98E); test: Competitive MHC class II binding assay, DPA10103-DPB10201
T1 sequence (P20036 29-260): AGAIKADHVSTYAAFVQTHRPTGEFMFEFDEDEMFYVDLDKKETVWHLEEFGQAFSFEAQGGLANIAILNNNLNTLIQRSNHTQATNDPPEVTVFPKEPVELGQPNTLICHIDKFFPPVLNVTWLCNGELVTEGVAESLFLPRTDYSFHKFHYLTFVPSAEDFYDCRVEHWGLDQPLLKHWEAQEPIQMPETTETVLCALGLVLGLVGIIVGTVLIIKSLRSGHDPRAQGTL
T1 sequence (P04440 30-258 A65V/A84D/A85E/K98E): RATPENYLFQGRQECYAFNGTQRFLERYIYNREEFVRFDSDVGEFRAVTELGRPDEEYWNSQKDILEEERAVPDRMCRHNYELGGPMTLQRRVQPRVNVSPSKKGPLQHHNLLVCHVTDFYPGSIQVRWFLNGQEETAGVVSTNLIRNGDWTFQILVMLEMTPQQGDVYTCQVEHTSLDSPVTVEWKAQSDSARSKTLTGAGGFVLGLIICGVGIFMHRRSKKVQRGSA

[15] = molecular target: DQA10501-DQB10201 (Homo sapiens, UniProt P01909+P01920, A45G/A70V/D89A/E106A/E77G/E98D/H199R/L107V/N214S/P84L/P87L/T103K/T109R/T172A/T60S/V78E/V99I/Y58L/Y62S/Y69I/Y79F); test: Competitive MHC class II binding assay, DQA10501-DQB10201
[16] = Solubility of peptides in aqueous solutions at different pH (visual inspection, OD, HPLC); type: physicochemical; settings: Table 11a; evaluated by visual inspection
Excerpt: This example describes modifications of parent peptides to improve the aqueous solubility, in particular to increase the solubility in an aqueous solution having pH in a physiologically acceptable range, e.g. from 6 to 8. Solubility is closely related to the ratio between hydrophilic and hydrophobic amino acid residues and the net charge state of the peptide. Peptides have zero net charge at pH=pI, and would be expected to show the lowest solubility at this pH. […] The solubility of these peptides was increased at pH values outside the physiological range (data not shown).
Peptides were tested for their ability to dissolve in aqueous solutions at different pH values. In short, each of the peptides were dissolved in water (pH about 5-6), hydrochloride solution at pH 2 (10 mM HCl), acetate buffer with pH 5 (20 mM acetate and 140 mM sodium chloride), phosphate buffer with pH 7 (20 mM phosphate and 140 mM sodium chloride) or bistrispropate buffer with pH 9 (20 mM bitrispropane and 140 mM sodium chloride, respectively, to produce a final molar concentration of the peptide of about 0.25 mM or 1 mM. Optionally, about 20% DMSO may be part of the solution. For comparison reasons, peptides were also dissolved in acetonitrile or DMSO. The solutions were inspected visually before and after centrifugation for turbidity, presence of particles/aggregates. In addition, presence of turbidity/particles/aggregates were detected by optical density (OD), but might also be detected by size-exclusion chromatography. Sub-visual particles may also be detected by dynamic light scattering (DLS) analysis. The solubility and stability of each peptide were also investigated using HPLC, e.g. RP-HPLC. For example, each of the solutions were injected onto the HPLC and the peak height or peak area of each of the peptides were compared to the corresponding peptide of a chromatogram of peptides dissolved in acetonitrile or DMSO—as peptides were assumed to be fully dissolved and stable in these solvents.

[17] = molecular target: DRB5_0101 (Homo sapiens, UniProt P01903+Q30154); test: Competitive MHC class II binding assay, DRB5_0101
[18] = molecular target: T2, DPA10103-DPB10301 (Homo sapiens, UniProt P04440+P20036, A65V/A84D/A85E/E86D/F38Y/G113D/G114E/G40L/I94L/L37V/M105V/M116V/P115A/R125K/T199I); test: Competitive MHC class II binding assay, DPA10103-DPB10301
T2 sequence (P20036 29-260): T1 sequence (P20036 29-260)
T2 sequence (P04440 30-258 L37V/F38Y/G40L/A65V/A84D/A85E/E86D/I94L/M105V/G113D/G114E/P115A/M116V/R125K/T199I/V234M): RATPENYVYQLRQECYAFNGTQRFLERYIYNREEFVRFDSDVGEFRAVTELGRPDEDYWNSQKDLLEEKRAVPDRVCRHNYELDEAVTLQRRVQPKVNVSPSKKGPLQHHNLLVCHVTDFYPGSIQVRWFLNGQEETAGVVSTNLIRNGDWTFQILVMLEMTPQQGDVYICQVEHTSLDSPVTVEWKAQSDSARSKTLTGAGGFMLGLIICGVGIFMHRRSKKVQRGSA

[19] = molecular target: DRB1_0301 (Homo sapiens, UniProt P01903+P01911, A100K/A102G/A103R/A169T/F55Y/I96L/K41T/L162R/M171V/P40S/Q125H/Q178H/Q39Y/R42S/S66N/T106N/T262R/W38E/Y61H); test: Competitive MHC class II binding assay, DRB1_0301
[20] = molecular target: DRB1_1101 (Homo sapiens, UniProt P01903+P01911, A100R/A169T/A87E/I96F/K41T/L162R/M171V/P40S/Q125H/Q178H/Q39Y/Q99D/R42S/S66Y/T262R/V115G/W38E); test: Competitive MHC class II binding assay, DRB1_1101
[21] = molecular target: DRB3_0101 (Homo sapiens, UniProt P01903+P79483); test: Competitive MHC class II binding assay, DRB3_0101

Compound	IC50 [1] [nM]	IC50 [2] [nM]	IC50 [3] [nM]	IC50 [4] [nM]	IC50 [5] [nM]	IC50 [6] [nM]	IC50 [9] [nM]	IC50 [10] [nM]	IC50 [11] [nM]	IC50 [12] [nM]	IC50 [17] [nM]	IC50 [18] [nM]	IC50 [20] [nM]	further results
CC[C@H](C)[C@H](NC(=O)[C@H](CO)NC(=O)[C@@H]1CCCN1C(=O)[C@H](CCC(=O)O)NC(=O)[C@H](CO)NC(=O)CNC(=O)[C@H](Cc1c[nH]cn1)NC(=O)[C@H](CO)NC(=O)CN)C(=O)N[C@H](C(=O)N[C@@H](Cc1c[nH]cn1)C(=O)N[C@@H](CCCNC(=N)N)C(=O)NCC(=O)N[C@@H](CCCCN)C(=O)N1CCC[C@H]1C(=O)N[C@@H](Cc1ccccc1)C(=O)N[C@@H](CCC(N)=O)C(=O)N[C@@H](CC(C)C)C(=O)N[C@@H](CCC(=O)O)C(=O)N[C@@H](C)C(=O)O)[C@@H](C)CC [pep-090]	< 1000	< 1000	< 1000	< 1000	< 1000	< 1000								IC50 [7]: < 1000 nM; IC50 [8]: < 1000 nM
ATESAYLAYRNTSLD [pep-022]	< 1000	< 1000	< 1000		< 1000		< 1000	< 1000	< 1000	< 1000				
HRGKPFQLEAVFEANQNTKT [pep-091]	< 1000		< 1000	< 1000		< 1000	< 1000		< 1000	< 1000				IC50 [13]: < 1000 nM; IC50 [14]: < 1000 nM; IC50 [15]: < 1000 nM
KGQQYDIKYTWNVPKIA [pep-126]	< 1000	< 1000	< 1000	< 1000			< 1000			< 1000	< 1000	< 1000		Solubility at pH 7 [16]: Clear; IC50 [13]: < 1000 nM
KSENVVVTVKLVGDNGVLAS [pep-109]				< 1000		< 1000		< 1000		< 1000			< 1000	IC50 [19]: < 1000 nM; IC50 [21]: < 1000 nM
QESYYRYVAREQSSRRPNAQ [pep-050]								< 1000			< 1000	< 1000	< 1000	IC50 [19]: < 1000 nM
RGLKQMKRVGDANV [HDM35A, reference compound]	< 1000									< 1000			< 1000	
SYYRYVAREQS [HDM205, reference compound]		< 1000	< 1000	< 1000	< 1000	< 1000		< 1000	< 1000	< 1000			< 1000	
VQESYYRYVAREQSSRRPNAQ [pep-124]		< 1000								< 1000	< 1000	< 1000	< 1000	IC50 [14]: < 1000 nM
